In the assay the target is T1, AeOBP22 (odorant binding protein 22) (Aedes aegypti, UniProt Q1HRL7).
T1 construct: mature form, residues 17-138, signal peptide (1-16) removed, added N-terminal initiator Met, no tags (123 residues); monomer; 13C/15N labelled for NMR
T1 sequence (Q1HRL7 17-138): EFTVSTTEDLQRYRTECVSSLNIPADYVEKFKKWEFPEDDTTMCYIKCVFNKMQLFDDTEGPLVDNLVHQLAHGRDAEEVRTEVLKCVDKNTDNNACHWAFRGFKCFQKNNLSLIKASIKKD
The experiment in a line: fluorescence-based binding assay (preliminary); binding confirmed by NMR.

In the case of `CCCCC/C=C\C/C=C\C/C=C\C/C=C\CCCC(=O)O` [arachidonic acid], the Kd (in general, the free concentration of one partner at which half of the binding sites on the other are occupied at equilibrium, for simple one-to-one binding) was about 230 nM.

Values taken from publication PMC6439253, “Complete NMR chemical shift assignments of odorant binding protein 22 from the yellow fever mosquito, Aedes aegypti, bound to arachidonic acid” (Biomolecular Nmr Assignments, 2019).
